Data reported in patent publication US12351570B2 (MERCK PATENT GMBH, priority 2018, dated 2025).

The molecules below were run on MDA-MB-231 cells (assay: Extracellular lactate production inhibition after 4 h, MDA-MB-231). Settings: Homo sapiens, MDA-MB-231.
Work on `O=C(O)c1ncc(C#Cc2ccccc2NS(=O)(=O)c2cccc3c(Cl)ccnc23)c2ccccc12` [Compound 441, 4-{2-[2-(4-chloroquinoline-8-sulfonamido)phenyl]ethynyl}iso-quinoline-1-carboxylic acid] yielded an IC50 of 100 to 1000 nM.
`Cn1c2ccccc2c2cc(S(=O)(=O)Nc3ccccc3C#Cc3ccc(C(=O)O)nc3)ccc21` [Compound 227, 5-{2-[2-(9-methyl-9H-carbazole-3-sulfonamido)phenyl]ethynyl}pyridine-2-carboxylic acid] showed an IC50 of 10 to 100 nM.
`COc1ccccc1-c1cccc(CN(C=O)c2ccccc2C#Cc2ccc(C(=O)O)nc2)c1` [Compound 179, 5-(2-{2-[N-({2′-methoxy-[1,1′-biphenyl]-3-yl}methyl)formamido]phenyl}ethynyl) pyridine-2-carboxylic acid] was tested, and the IC50 was 100 to 1000 nM.
In the case of `O=C(O)c1ncc(C#Cc2ccccc2NS(=O)(=O)c2ccc3ccccc3c2)cc1F` [Compound 65, 3-fluoro-5-{2-[2-(naphthalene-2-sulfonamido)phenyl]ethynyl}pyridine-2-carboxylic acid], the IC50 is reported as 1000 to 100000 nM.
Molecule `COc1ccc(S(=O)(=O)Nc2ccc(Br)cc2C#Cc2ccc(C(=O)N(C)C)nc2)c2ncccc12` [Compound 238, 5-{2-[5-bromo-2-(5-methoxyquinoline-8-sulfonamido)phenyl]ethynyl}-N,N-dimethylpyridine-2-carboxamide] has an IC50 of 1000 to 100000 nM.
`COc1cccc(S(=O)(=O)Nc2ccccc2C#Cc2ccc(C(=O)O)c(C)c2)c1` [Compound 9, 4-{2-[2-(3-methoxybenzenesulfonamido)phenyl]-ethynyl}-2-methylbenzoic acid] gave an IC50 of 1000 to 100000 nM.
For `COc1ccc(S(=O)(=O)Nc2ccccc2C#Cc2ccc(C(=O)O)cc2)c(C)c1` [Compound 47, 4-{2-[2-(4-methoxy-2-methylbenzenesulfonamido)phenyl]ethynyl} benzoic acid], the IC50 was 100 to 1000 nM.
`COc1ccc(C#Cc2ccc(C(=O)O)nc2)c(NS(=O)(=O)c2ccc(OC)c3cccnc23)c1` [Compound 197, 5-{2-[4-methoxy-2-(5-methoxyquinoline-8-sulfonamido)phenyl]ethynyl}pyridine-2-carboxylic acid] showed an IC50 of 100 to 1000 nM.
For `CNc1cc(C#Cc2ccccc2NS(=O)(=O)c2ccc(OC)c3cccnc23)cnc1C(=O)N(C)C` [Compound 246, 5-{2-[2-(5-methoxyquinoline-8-sulfonamido)phenyl]ethynyl}-N,N-dimethyl-3-(methylamino)pyridine-2-carboxamide], the IC50 was 1000 to 100000 nM.
`O=C(O)c1ccc(C#Cc2ccccc2NS(=O)(=O)c2cc3ccccc3o2)cc1` [Compound 73, 4-{2-[2-(1-benzofuran-2-sulfonamido)phenyl]ethynyl}benzoic acid] was tested, and the IC50 was 100 to 1000 nM.
For `COC(=O)c1ccc(C#Cc2ccccc2NS(=O)(=O)c2ccc3c(c2)Cc2ccccc2-3)cn1` [Compound 132, methyl 5-{2-[2-(9H-fluorene-2-sulfonamido)phenyl]ethynyl}pyridine-2-carboxylate], the IC50 was 10 to 100 nM.
`CCOc1ccc(S(=O)(=O)Nc2ccccc2C#Cc2cnc(C(=O)O)c(CC)c2)c2ncccc12` [Compound 371, 5-[2-(5-Ethoxy-quinoline-8-sulfonylamino)-phenylethynyl]-3-ethyl-pyridine-2-carboxylic acid] gave an IC50 of 1 to 10 nM.
Work on `O=C(O)c1ccc(C#Cc2ccccc2NS(=O)(=O)c2csc3ccccc23)cc1` [Compound 83] yielded an IC50 of 100 to 1000 nM.
Work on `Cc1ccc2cccnc2c1S(=O)(=O)Nc1ccc(F)cc1C#Cc1ccc(C(=O)O)nc1` [Compound 112, 5-{2-[5-fluoro-2-(7-methylquinoline-8-sulfonamido)phenyl]ethynyl}pyridine-2-carboxylic acid] yielded an IC50 of 10 to 100 nM.
`O=C(O)c1ncc(C#Cc2ccccc2NS(=O)(=O)c2cccc3ccccc23)cc1F` [Compound 279, 3-fluoro-5-{2-[2-(naphthalene-1-sulfon-amido)phenyl]ethynyl}pyridine-2-carboxylic acid] was tested, and the IC50 was 1000 to 100000 nM.
Molecule `O=C(O)c1ccc(C#Cc2ccccc2NS(=O)(=O)c2cccc3nsnc23)cn1` [Compound 292, 5-{2-[2-(2,1,3-benzothiadiazole-4-sulfonamido)phenyl]ethynyl}pyridine-2-carboxylic acid] has an IC50 of 1000 to 100000 nM.
`O=C(O)c1ccc(C#Cc2ccccc2NS(=O)(=O)c2cccc3ncccc23)cc1` [Compound 35, 4-{2-[2-(quinoline-5-sulfonamido)phenyl]ethynyl}benzoic acid] was tested, and the IC50 was 1000 to 100000 nM.
Work on `COc1ccc(S(=O)(=O)Nc2ccccc2C#Cc2ccc(C(=O)NC#N)cc2)c2ccccc12` [Compound 253, N-cyano-4-{2-[2-(4-methoxy-naphthalene-1-sulfonamido)phenyl]-ethynyl}benzamide] yielded an IC50 of 1000 to 100000 nM.
`COc1ccc(S(=O)(=O)Nc2c(C)cc(Cl)cc2C#Cc2ccc(C(=O)O)nc2)c2ncccc12` [Compound 346, 5-{2-[5-chloro-2-(5-methoxyquinoline-8-sulfonamido)-3-methylphenyl]-ethynyl}pyridine-2-carboxylic acid] showed an IC50 of 100 to 1000 nM.
With `Cc1ccc(C#Cc2ccc(C(=O)O)cc2)c(NS(=O)(=O)c2ccc3ccccc3c2)c1` [Compound 46, 4-{2-[4-methyl-2-(naphthalene-2-sulfonamido)phenyl]ethynyl}benzoic acid] the IC50 was 100 to 1000 nM.
`CCOc1cc(C(=O)O)ncc1C#Cc1ccccc1NS(=O)(=O)c1c(C)ccc2cccnc12` [Compound 180, 4-ethoxy-5-{2-[2-(7-methylquinoline-8-sulfonamido)phenyl]ethynyl}pyridine-2-carboxylic acid] gave an IC50 of 10 to 100 nM.
In the case of `C=C(C)c1cc(C(=O)O)ncc1C#Cc1ccccc1NS(=O)(=O)c1c(C)ccc2cccnc12` [Compound 158, 5-{2-[2-(7-methylquinoline-8-sulfonamido)phenyl]ethynyl}-4-(prop-1-en-2-yl)pyridine-2-carboxylic acid], the IC50 is reported as 10 to 100 nM.
In the case of `COc1ccnc2c(S(=O)(=O)Nc3ccccc3C#Cc3ccc(C(=O)O)nc3)cccc12` [Compound 324, 5-{2-[2-(4-methoxyquinoline-8-sulfonamido)phenyl]ethynyl}pyridine-2-carboxylic acid], the IC50 is reported as 100 to 1000 nM.
`O=C(O)c1ccc(C#Cc2ccccc2NS(=O)(=O)N2CCC[C@H]3CCCC[C@@H]32)cn1` [Compound 162, 5-[2-(2-{[(4aR,8aS)-decahydroquinoline-1-sulfonyl]amino}phenyl)ethynyl]pyridine-2-carboxylic acid] gave an IC50 of 10 to 100 nM.
`COC(=O)c1ccc(C#Cc2cc([N+](=O)[O-])ccc2NS(=O)(=O)c2c(C)ccc3cccnc23)cn1` [Compound 244, methyl 5-{2-[2-(7-methylquinoline-8-sulfonamido)-5-nitrophenyl]ethynyl}-pyridine-2-carboxylate] showed an IC50 of 10 to 100 nM.
`O=C(O)c1ccc(C#Cc2ccccc2NS(=O)(=O)c2cccc(-c3ccccc3)c2)cn1` [Compound 96, 5-[2-(2-{[1,1′-biphenyl]-3-sulfonamido}phenyl)ethynyl]pyridine-2-carboxylic acid] was tested, and the IC50 was 100 to 1000 nM.
`COc1ccc(S(=O)(=O)Nc2ccccc2C#Cc2ccc(C(=O)OC(C)C)nc2)c2ncccc12` [Compound 167, propan-2-yl 5-{2-[2-(5-methoxyquinoline-8-sulfonamido)phenyl]ethynyl}pyridine-2-carboxylate] gave an IC50 of 10 to 100 nM.
`COc1ccc(S(=O)(=O)Nc2ccccc2C#Cc2ccc(C(=O)O)nc2)c2ccccc12` [Compound 31, 5-{2-[2-(4-methoxynaphthalene-1-sulfonamido)phenyl]ethynyl}pyridine-2-carboxylic acid] showed an IC50 of 100 to 1000 nM.
In the case of `COc1cc(C(=O)O)ncc1C#Cc1ccccc1NS(=O)(=O)N1CCC(C)C2CCCCC21` (stereo not drawn) [Compound 222, 4-methoxy-5-[2-(2-{[(4-methyl-deca-hydroquinolin-1-yl)sulfonyl]amino}-phenyl)ethynyl]pyridine-2-carboxylic acid], the IC50 is reported as 10 to 100 nM.
`COC(=O)c1ncc(C#Cc2cc(F)ccc2NS(=O)(=O)c2ccc(-c3ccccc3)cc2)cc1C` [Compound 313, methyl 5-[2-(2-{[1,1′-biphenyl]-4-sulfonamido}-5-fluorophenyl)ethynyl]-3-methylpyridine-2-carboxylate] showed an IC50 of 1000 to 100000 nM.
`O=C(O)c1ccc(C#Cc2ccccc2NS(=O)(=O)c2ccc3c(c2)Cc2ccccc2-3)cc1` [Compound 87, 4-{2-[2-(9H-fluorene-2-sulfonamido)phenyl]ethynyl}benzoic acid] gave an IC50 of 100 to 1000 nM.
Work on `CC(C)Oc1ccc(S(=O)(=O)Nc2ccccc2C#Cc2ccc(C(=O)O)nc2)c2ncccc12` [Compound 339, 5-(2-{2-[5-(propan-2-yloxy)quinoline-8-sulfonamido]phenyl}ethynyl)pyridine-2-carboxylic acid] yielded an IC50 of 10 to 100 nM.
In the case of `O=C(O)c1ccc(C#Cc2ccccc2NS(=O)(=O)c2cccc3c2OC(F)(F)O3)cc1` [Compound 251, 4-[2-(2,2-Difluoro-benzo[1,3]dioxole-4-sulfonylamino)-phenylethynyl]-benzoic acid], the IC50 is reported as 1000 to 100000 nM.
`O=C(O)c1ccc(C#Cc2ccccc2NS(=O)(=O)c2cccc3ccccc23)cn1` [Compound 70, 5-{2-[2-(naphthalene-1-sulfonamido)phenyl]ethynyl}pyridine-2-carboxylic acid] showed an IC50 of 100 to 1000 nM.
Molecule `Cc1c(S(=O)(=O)Nc2ccccc2C#Cc2ccc(C(=O)O)cc2)sc2ccc(Cl)cc12` [Compound 22, 4-{2-[2-(5-chloro-3-methyl-1-benzothiophene-2-sulfonamido)phenyl]ethynyl}benzoic acid] has an IC50 of 100 to 1000 nM.
With `O=C(O)c1ccc(C#Cc2ccc(C(F)(F)F)cc2NS(=O)(=O)c2ccc3ccccc3c2)cc1` [Compound 17, 4-{2-[2-(naphthalene-2-sulfonamido)-4-(trifluoromethyl)phenyl]ethynyl}benzoic acid] the IC50 was 100 to 1000 nM.
In the case of `COc1cccc(S(C)(=O)=Nc2ccccc2C#Cc2ccc(C(=O)O)nc2)c1` (stereo not drawn) [Compound 434, 5-[2-(2-{[(3-methoxyphenyl)(methyl)oxo-λ6-sulfanylidene]amino}phenyl)ethynyl] pyridine-2-carboxylic acid], the IC50 is reported as 100 to 1000 nM.
For `CCN(c1ccccc1C#Cc1ccc(C(=O)O)cc1)S(=O)(=O)c1ccc2ccccc2c1` [Compound 36, 4-{2-[2-(N-ethylnaphthalene-2-sulfonamido)phenyl]ethynyl}benzoic acid], the IC50 was 1000 to 100000 nM.
For `COc1ccc(S(=O)(=O)Nc2ccc(F)cc2C#Cc2ccc(C(=O)O)nc2)c2ccccc12` [Compound 37, 5-{2-[5-fluoro-2-(4-methoxynaphthalene-1-sulfonamido)phenyl]ethynyl}pyridine-2-carboxylic acid], the IC50 was 100 to 1000 nM.
